Results as given in PMC11249646, “Small-Molecule Disruptors of the Interaction between Calcium- and Integrin-Binding Protein 1 and Integrin αIIbβ3 as Novel Antiplatelet Agents” (ACS Pharmacology & Translational Science, 2024).
Read-outs that look alike come from different tables or passages of the source.

Target: T1, CIB1 and αIIb interaction (CIB1-GST : F-αIIb peptide) (Homo sapiens, UniProt Q99828)
T1 construct: made in house; host or cells: BL-21 plus RIL cells (E. coli)
T1 sequence (Q99828 1-191): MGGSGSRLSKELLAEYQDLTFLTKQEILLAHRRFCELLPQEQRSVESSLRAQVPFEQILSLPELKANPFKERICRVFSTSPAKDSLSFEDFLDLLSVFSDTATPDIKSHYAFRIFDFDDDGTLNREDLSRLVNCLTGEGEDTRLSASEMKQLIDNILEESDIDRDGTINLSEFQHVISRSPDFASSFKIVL
Assay: FP assay, 1536-well qHTS format (primary and confirmatory screen)
Format: binding
Details: for Curve Class: negative sign = inhibitory curve

[1] = qHTS primary screen hits, Table S2, negative = inhibition
[2] = qHTS primary screen hits, Table S2, several classes where COUNT > 1
[3] = qHTS primary screen hits, Table S2, read-out: IC50
[4] = qHTS primary screen of LOPAC/NPACT libraries, negative = inhibition
[5] = qHTS primary screen of LOPAC/NPACT libraries
[6] = qHTS primary screen of LOPAC/NPACT libraries, read-out: IC50
[7] = qHTS primary screen hits, Table S2
[8] = qHTS FP screen hits, Table S2, negative = inhibition
[9] = qHTS FP screen hits, Table S2, read-out: IC50

SMILES: O=C(Nc1ccc(S(=O)(=O)N2CCOCC2)cc1)c1ccc(N2CCc3ccccc3C2)cc1 [NCGC00348032-01]
- Efficacy (%) [1]: -34%
- Curve Class [2]: -2.4
- IC50 [3]: 50.1 µM

SMILES: CO[C@@]1(NC(=O)CSCC#N)C(=O)N2C(C(=O)[O-])=C(CSc3nnnn3C)CS[C@@H]21.[Na+] [NCGC00023016-07]
- Efficacy (%) [1]: -29%
- Curve Class [2]: -2.4
- IC50 [3]: 50.1 µM

SMILES: C=CC/C=C\C/C=C\CCCCCCCc1cccc(O)c1C(=O)O [NCGC00169660-02]
- Efficacy (%) [4]: -27%
- Curve Class [5]: -1.4
- IC50 [6]: 25.1 µM

SMILES: O=C(O)C(F)(F)F.OCc1ccc(-c2ccc3ncnc(NCc4ncc[nH]4)c3c2)o1 [NCGC00188670-01]
- Efficacy (%) [1]: -33%
- Curve Class [2]: -2.4
- IC50 [3]: 56.2 µM

SMILES: COc1cc(N2CCC(N3CCN(C)CC3)CC2)ccc1Nc1ncc(Cl)c(-c2c[nH]c3ccccc23)n1 [NCGC00390583-01]
- Efficacy (%) [4]: -31%
- Curve Class [5]: -2.4
- IC50 [6]: 50.1 µM

SMILES: COc1ccc(Br)cc1S(=O)(=O)NC(=O)/C=C/c1ccccc1Cc1ccc2ccccc2c1 [NCGC00260960-01]
- Efficacy (%) [1]: -50%
- Curve Class [7]: -2.2
- IC50 [3]: 22.4 µM

SMILES: Cc1ccc(O)c(N=Nc2ccccc2)n1 [NCGC00185991-01]
- Efficacy (%) [4]: -14%
- Curve Class [5]: -1.2
- IC50 [6]: 1.8 µM

SMILES: C=C(C)C(=O)OC1CC2(C)OC(=CC2=O)C(=C)CC2OC(=O)C(=C)C12 (stereo not shown) [NCGC00381113-01]
- Efficacy (%) [4]: -22%
- Curve Class [5]: -1.4
- IC50 [6]: 8.9 µM

SMILES: O=C(O)c1ccccc1Nc1cccc(OCc2ccc3ccccc3n2)c1 [NCGC00015965-05]
- Efficacy (%) [1]: -42%
- Curve Class [7]: -2.2
- IC50 [3]: 50.1 µM

SMILES: O=C(O)CCc1nc(-c2ccccc2)c(-c2ccccc2)o1 [NCGC00014711-11]
- Efficacy (%) [4]: -11%
- Curve Class [5]: -2.4
- IC50 [6]: 89.1 µM

SMILES: O=C(N/N=C/c1ccc([N+](=O)[O-])o1)c1ccc(O)cc1 [NCGC00179496-04]
- IC50 [3]: 44.7 µM

SMILES: O=C(/C=C/c1ccccc1)OC[C@H]1O[C@@H](OC(=O)c2cc(O)c(O)c(O)c2)[C@H](O)[C@@H](O)[C@@H]1O [NCGC00380690-01]
- Efficacy (%) [4]: -20%
- Curve Class [5]: -1.4
- IC50 [6]: 8.9 µM

SMILES: CCC(C)CC(=O)OC1C(=O)C(CO)=CC(O)C1C(C)C (stereo not shown) [NCGC00381331-01]
- Efficacy (%) [4]: -22%
- Curve Class [5]: -2.4
- IC50 [6]: 56.2 µM

SMILES: NS(=O)(=O)c1ccc(NCc2cn(-c3nc(C(=O)O)cs3)nc2-c2ccccc2)cc1.O=C(O)C(F)(F)F [NCGC00357525-01]
- Efficacy (%) [1]: -25%
- Curve Class [2]: -2.4
- IC50 [3]: 56.2 µM

SMILES: Cn1ccc(=Nc2ccc(NC(=O)c3ccc(/N=c4/ccn(C)c5ccc([N+](=O)[O-])cc45)cc3)cc2)cc1.O=C(O)C(F)(F)F [NCGC00356208-01]
- Efficacy (%) [1]: -35%
- Curve Class [2]: -2.4
- IC50 [3]: 56.2 µM

SMILES: COCCCOc1ccnc(C[S+]([O-])c2nc3ccccc3[n-]2)c1C.[Na+] (stereo not shown) [NCGC00159518-05]
- Efficacy (%) [1]: -54%
- IC50 [3]: 42.2 µM

SMILES: CC(=O)O.Cc1cc2c(C(C)C)c(O)c(O)c(C=O)c2c(O)c1-c1c(C)cc2c(C(C)C)c(O)c(O)c(C=O)c2c1O [NCGC00016423-14]
- Efficacy (%) [8]: -64%
- IC50 [9]: 29.4 µM

SMILES: OCCCc1ccccc1 [NCGC00165987-03]
- Efficacy (%) [1]: -35%
- Curve Class [2]: -2.2
- IC50 [3]: 56.2 µM

SMILES: Nc1cccc2c(N)cccc12 [NCGC00091284-03]
- Efficacy (%) [1]: -33%
- IC50 [3]: 113 µM

SMILES: O=C1CCC(N2C(=O)c3ccccc3C2=O)C(=O)N1 (stereo not shown) [NCGC00015989-17]
- Efficacy (%) [1]: -28%
- Curve Class [2]: -2.4
- IC50 [3]: 50.1 µM

SMILES: CN1CCC2(CCN3CCc4c(oc5ccccc45)C3C2)N(C)C1=O.Cl (stereo not shown) [NCGC00015699-03]
- Efficacy (%) [4]: -11%
- Curve Class [5]: -1.4
- IC50 [6]: 17.8 µM

SMILES: O=C(Nc1ccc(S(=O)(=O)N2CCOCC2)cc1)c1cc(Cl)ccc1NS(=O)(=O)c1ccc(Cl)s1 [NCGC00249417-02]
- Efficacy (%) [8]: -34%
- IC50 [9]: 40.9 µM

SMILES: Oc1cccc2cccnc12 [NCGC00090708-05]
- Efficacy (%): -29%
- IC50 (IC50 [μM]): 117 µM

SMILES: CC(=O)NCc1ccc(-c2csc(Nc3cccc(C)c3)n2)o1.O=C(O)C(F)(F)F [NCGC00304445-03]
- Efficacy (%) [1]: -38%
- Curve Class [2]: -2.4
- IC50 [3]: 44.7 µM

SMILES: O=C(O)C(F)(F)F.O=C1CC(c2c(F)cccc2F)c2sc(N3CCOCC3)nc2N1 (stereo not shown) [NCGC00488261-02]
- Efficacy (%) [1]: -47%
- Curve Class [2]: -2.4
- IC50 [3]: 56.2 µM

SMILES: Cl.Cl.Nc1ccc(/N=N/c2ccccc2)c(N)n1 [NCGC00018130-09]
- Efficacy (%) [1]: -22%
- Curve Class [7]: -2.4
- IC50 [3]: 79.4 µM

SMILES: CC(=O)[C@]1(O)Cc2c(O)c3c(c(O)c2[C@@H](O[C@H]2C[C@H](N)[C@H](O)[C@H](C)O2)C1)C(=O)c1ccccc1C3=O [NCGC00093976-06]
- Efficacy (%) [1]: -86%
- IC50 [3]: 19.1 µM

SMILES: CC(C)=CCc1ccc(Oc2c(O)cc(C)cc2CO)c(C(=O)O)c1O [NCGC00169025-02]
- Efficacy (%) [4]: -26%
- Curve Class [5]: -2.4
- IC50 [6]: 44.7 µM

SMILES: Cl.Cl.NC(CO)C(=O)NNCc1ccc(O)c(O)c1O (stereo not shown) [NCGC00015163-09]
- Efficacy (%) [1]: -50%
- Curve Class [2]: -2.2
- IC50 [3]: 50.1 µM

SMILES: CC(C)NC[C@@H](O)c1ccc(O)c(O)c1 [NCGC00179436-02]
- Efficacy (%) [4]: -24%
- Curve Class [5]: -2.2
- IC50 [6]: 50.1 µM

SMILES: COc1ccc(NS(=O)(=O)c2ccc(N)cc2)nn1 [NCGC00016324-09]
- Efficacy (%) [1]: -139%
- Curve Class [7]: -3
- IC50 [3]: 39.8 µM

SMILES: O=C1NC(c2cccc([N+](=O)[O-])c2)=CCN1c1ccccc1O [NCGC00015571-05]
- Efficacy (%) [1]: -18%
- Curve Class [2]: -2.2
- IC50 [3]: 50.1 µM

SMILES: O=C(O)C(F)(F)F.O=C(c1ccc2ccccc2c1)c1no[n+]([O-])c1C(=O)c1ccc2ccccc2c1 [NCGC00351316-01]
- Efficacy (%) [1]: -35%
- Curve Class [7]: -2.2
- IC50 [3]: 44.7 µM

SMILES: C=C(C)C(=O)OC1CC2(C)OC(=CC2=O)C(=C)CC2OC(=O)C(COC)C12 (stereo not shown) [NCGC00380534-01]
- Curve Class (qHTS primary screen hits, Table S2, NPACT library): -1.4
- Efficacy (%) [1]: -17%
- IC50 [3]: 28.2 µM

SMILES: Nc1nc(N)c2nc(CNc3ccc(C(=O)NC(CCC(=O)O)C(=O)O)cc3)cnc2n1 (stereo not shown) [NCGC00015038-09]
- Efficacy (%) [1]: -49%
- Curve Class [7]: -2.2
- IC50 [3]: 39.8 µM

SMILES: O=C(O)C(F)(F)F.OCc1ccc(-c2ccc3ncnc(N4CCOCC4)c3c2)o1 [NCGC00238384-01]
- Efficacy (%) [1]: -42%
- Curve Class [2]: -2.2
- IC50 [3]: 44.7 µM

SMILES: C#CCOC(=O)NCCCC[C@H](N)C(=O)O [NCGC00351539-01]
- Efficacy (%) [1]: -24%
- Curve Class [2]: -2.4
- IC50 [3]: 56.2 µM

SMILES: CCCc1c(OCCCOc2ccc(OCC(=O)O)cc2)ccc(C(C)=O)c1O [NCGC00015599-05]
- Efficacy (%) [4]: -25%
- Curve Class [5]: -2.2
- IC50 [6]: 50.1 µM

SMILES: CCOc1ccc(-c2cc(NC(=O)c3c(F)cccc3F)c(C(=O)O)s2)cc1 [NCGC00386875-01]
- Efficacy (%) [4]: -21%
- Curve Class [5]: -1.4
- IC50 [6]: 14.1 µM

SMILES: Oc1ccc(Cl)c2cccnc12 [NCGC00095303-04]
- Efficacy (%) [1]: -37%
- Curve Class [2]: -2.4
- IC50 [3]: 56.2 µM

SMILES: O=C(O)C(F)(F)F.c1ccc(-n2cc(-c3nnc4n3CCCCC4)cn2)cc1 [NCGC00249642-01]
- Efficacy (%) [1]: -39%
- Curve Class [7]: -2.4
- IC50 [3]: 89.1 µM
